Test results: PMC6722883 (FEBS Open Bio, 2019)

Key:
[1] = target: T1, α3β4 nAChR expressed in Xenopus oocytes (Rattus norvegicus, UniProt P04757+P12392); experiment: cell-based; type: cell-based
T1 construct: expressed in transfected cells; host or cells: Xenopus oocytes injected with cRNA

[2] = buffer or solvent
[3] = target: human serum albumin (HSA) (Homo sapiens, UniProt P02768); settings: pH 7.2
[4] = pH 3
physchem [5] = settings: not applicable
physchem [6] = settings: buffer or solvent

T1 sequence (P04757 26-499 limits assumed): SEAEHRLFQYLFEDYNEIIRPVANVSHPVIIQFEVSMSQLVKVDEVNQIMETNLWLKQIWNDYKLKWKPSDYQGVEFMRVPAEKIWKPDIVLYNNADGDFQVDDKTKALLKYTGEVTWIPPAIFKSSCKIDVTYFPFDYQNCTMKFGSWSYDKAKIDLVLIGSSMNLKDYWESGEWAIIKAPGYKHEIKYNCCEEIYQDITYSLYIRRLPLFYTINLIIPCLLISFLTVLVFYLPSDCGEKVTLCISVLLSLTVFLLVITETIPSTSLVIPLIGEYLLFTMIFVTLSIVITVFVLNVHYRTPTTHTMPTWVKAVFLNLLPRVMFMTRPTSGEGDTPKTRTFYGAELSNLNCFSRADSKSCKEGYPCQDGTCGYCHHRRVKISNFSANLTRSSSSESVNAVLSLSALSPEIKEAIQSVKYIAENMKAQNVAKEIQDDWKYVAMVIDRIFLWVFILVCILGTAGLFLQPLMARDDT
T1 sequence (P12392 21-495 limits assumed): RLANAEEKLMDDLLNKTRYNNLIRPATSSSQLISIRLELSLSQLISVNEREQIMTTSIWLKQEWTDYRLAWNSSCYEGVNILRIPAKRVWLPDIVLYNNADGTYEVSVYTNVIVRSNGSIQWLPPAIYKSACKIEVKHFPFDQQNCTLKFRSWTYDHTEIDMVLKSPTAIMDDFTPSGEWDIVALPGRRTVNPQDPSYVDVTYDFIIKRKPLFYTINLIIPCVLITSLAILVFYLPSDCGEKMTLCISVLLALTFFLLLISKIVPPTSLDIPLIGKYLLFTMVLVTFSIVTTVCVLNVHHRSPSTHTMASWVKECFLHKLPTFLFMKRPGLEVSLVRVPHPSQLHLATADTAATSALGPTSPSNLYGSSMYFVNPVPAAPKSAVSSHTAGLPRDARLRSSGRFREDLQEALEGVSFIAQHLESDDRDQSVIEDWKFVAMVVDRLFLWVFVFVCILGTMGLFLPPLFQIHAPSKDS
Sequence of human serum albumin (HSA) (P02768 25-609 limits assumed): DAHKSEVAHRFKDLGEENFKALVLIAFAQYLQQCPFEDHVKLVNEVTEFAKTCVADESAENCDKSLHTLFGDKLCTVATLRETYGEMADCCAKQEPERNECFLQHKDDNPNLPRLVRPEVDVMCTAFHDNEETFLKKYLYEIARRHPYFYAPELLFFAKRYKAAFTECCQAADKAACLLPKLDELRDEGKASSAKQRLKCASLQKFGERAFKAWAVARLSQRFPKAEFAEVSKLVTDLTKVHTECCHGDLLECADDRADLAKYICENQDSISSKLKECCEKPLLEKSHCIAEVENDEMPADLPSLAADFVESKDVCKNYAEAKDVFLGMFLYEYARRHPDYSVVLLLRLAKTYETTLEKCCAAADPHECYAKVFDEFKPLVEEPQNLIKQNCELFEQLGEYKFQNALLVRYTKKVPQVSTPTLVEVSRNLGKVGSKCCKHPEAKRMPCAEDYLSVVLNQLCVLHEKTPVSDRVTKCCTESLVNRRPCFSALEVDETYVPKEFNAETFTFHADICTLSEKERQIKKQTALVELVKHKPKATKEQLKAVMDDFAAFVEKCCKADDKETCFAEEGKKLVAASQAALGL

Structure (SMILES): CC[C@H](C)[C@@H]1NC(=O)[C@@H]2CCCN2C(=O)[C@H](CO)NC(=O)[C@H](CC[S+](C)[O-])NC(=O)[C@H](C)NC(=O)[C@H](CO)NC(=O)[C@@H]2CSSC[C@H](NC(=O)CN)C(=O)N[C@@H](CSSC[C@@H](C(N)=O)NC1=O)C(=O)N[C@@H](CO)C(=O)N[C@@H](Cc1c[nH]cn1)C(=O)N1CCC[C@H]1C(=O)N[C@@H](C(C)C)C(=O)N2 (stereo partly shown) [Product I]
- Hill slope [1]: 0.76 (0.65–0.86)
- IC50 [1]: 503 nM
- Response at 100 nM [1]: 15%

Structure (SMILES): CC[C@H](C)[C@@H]1NC(=O)[C@@H]2CCCN2C(=O)[C@H](CO)NC(=O)[C@H](CCSC)NC(=O)[C@H](C)NC(=O)[C@H](CO)NC(=O)[C@@H]2CSSC[C@H](NC(=O)CN)C(=O)N[C@@H](CSSC[C@@H](C(N)=O)NC1=O)C(=O)N[C@@H](CO)C(=O)N[C@@H](Cc1cnc[nH]1)C(=O)N1CCC[C@H]1C(=O)N[C@@H](C(C)C)C(=O)N2 [TxID, α‐Conotoxin TxID]
- Hill slope [1]: 1.17 (0.87–1.46)
- remaining at 8 h [2]: 36%
- Globular isomer remaining, % of the total [3]: 75%
- Degradation rate constant K obs (50 °C) [4]: 1.01 × 10^−3 1/Mh
- Degradation rate constant K obs (60 °C) [4]: 2.42 × 10^−3 1/Mh
- Degradation rate constant K obs (70 °C) [4]: 5.54 × 10^−3 1/Mh
- Degradation rate constant K obs (80 °C) [4]: 2.02 × 10^−2 1/Mh
- E a, activation energy [4]: 27.9842 kcal/mol
- t0.5, half-life period at 25 °C [4]: 707 days
- t0.9, validity period at 25 °C [4]: 107 days
- remaining at 168 h (physchem [5]): 95%
- remaining at 1 min (physchem [6]): 71%
- remaining at 16 h (physchem [6]): 63%
